# Legend:
# ROCK2 = ROCK2 (Homo sapiens (Human), UniProt O75116); experiment: ROCK assay (Caliper LABCHIP peptide phosphorylation), ROCK2; type: biochemical; conditions: 5 μM ATP, 1.5 μM peptide substrate;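 further: reaction stopped with EDTA, then phosphorylated and unphosphorylated peptide resolved by microfluidic electrophoresis, kinase inhibition computed at each compound concentration in dose-response series, DMSO under 2%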
# ROCK1 = ROCK1 (Homo sapiens (Human), UniProt Q13464); experiment: ROCK assay (Caliper LABCHIP peptide phosphorylation), ROCK1; type: biochemical; conditions: 5 μM ATP, 1.5 μM peptide substrate;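 further: Read-out is separation of phosphorylated from unphosphorylated peptide, with kinase activity inhibition computed at every concentration of a dose-response series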
# Sequence of ROCK1 (Q13464 whole entry, species assumed): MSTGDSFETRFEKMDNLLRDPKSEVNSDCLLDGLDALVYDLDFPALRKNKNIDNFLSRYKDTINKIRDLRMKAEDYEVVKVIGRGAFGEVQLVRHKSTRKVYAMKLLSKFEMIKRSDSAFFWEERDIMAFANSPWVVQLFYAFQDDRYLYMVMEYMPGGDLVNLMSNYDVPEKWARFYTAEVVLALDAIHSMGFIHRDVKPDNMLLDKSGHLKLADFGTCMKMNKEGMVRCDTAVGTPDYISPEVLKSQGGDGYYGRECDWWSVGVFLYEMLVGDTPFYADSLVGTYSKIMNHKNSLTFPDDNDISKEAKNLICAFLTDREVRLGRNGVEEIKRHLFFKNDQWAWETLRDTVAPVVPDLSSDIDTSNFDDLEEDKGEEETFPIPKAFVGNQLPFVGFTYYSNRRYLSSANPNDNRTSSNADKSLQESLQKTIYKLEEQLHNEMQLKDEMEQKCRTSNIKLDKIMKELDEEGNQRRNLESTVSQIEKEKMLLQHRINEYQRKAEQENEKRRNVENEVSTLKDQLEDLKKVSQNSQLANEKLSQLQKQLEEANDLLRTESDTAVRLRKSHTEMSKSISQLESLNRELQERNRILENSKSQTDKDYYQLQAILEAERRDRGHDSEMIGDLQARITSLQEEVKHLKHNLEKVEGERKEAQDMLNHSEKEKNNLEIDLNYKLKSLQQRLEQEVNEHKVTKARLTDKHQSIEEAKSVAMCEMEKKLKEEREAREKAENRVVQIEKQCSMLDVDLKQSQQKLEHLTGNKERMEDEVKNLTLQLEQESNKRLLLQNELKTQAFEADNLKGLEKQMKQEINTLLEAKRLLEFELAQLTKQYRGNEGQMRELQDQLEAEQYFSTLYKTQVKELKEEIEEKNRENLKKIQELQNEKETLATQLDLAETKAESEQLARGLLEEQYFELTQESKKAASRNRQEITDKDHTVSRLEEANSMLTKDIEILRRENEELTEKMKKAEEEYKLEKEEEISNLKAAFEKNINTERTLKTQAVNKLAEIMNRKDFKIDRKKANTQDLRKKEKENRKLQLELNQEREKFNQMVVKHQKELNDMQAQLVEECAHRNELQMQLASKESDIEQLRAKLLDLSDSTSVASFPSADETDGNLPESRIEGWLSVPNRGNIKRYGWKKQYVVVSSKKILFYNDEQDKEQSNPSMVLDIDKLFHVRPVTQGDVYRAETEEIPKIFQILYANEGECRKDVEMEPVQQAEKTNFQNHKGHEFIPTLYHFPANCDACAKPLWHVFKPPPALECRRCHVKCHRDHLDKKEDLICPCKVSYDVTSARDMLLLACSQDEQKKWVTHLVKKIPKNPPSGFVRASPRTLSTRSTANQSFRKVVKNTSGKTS
# Sequence of ROCK2 (O75116 whole entry, species assumed): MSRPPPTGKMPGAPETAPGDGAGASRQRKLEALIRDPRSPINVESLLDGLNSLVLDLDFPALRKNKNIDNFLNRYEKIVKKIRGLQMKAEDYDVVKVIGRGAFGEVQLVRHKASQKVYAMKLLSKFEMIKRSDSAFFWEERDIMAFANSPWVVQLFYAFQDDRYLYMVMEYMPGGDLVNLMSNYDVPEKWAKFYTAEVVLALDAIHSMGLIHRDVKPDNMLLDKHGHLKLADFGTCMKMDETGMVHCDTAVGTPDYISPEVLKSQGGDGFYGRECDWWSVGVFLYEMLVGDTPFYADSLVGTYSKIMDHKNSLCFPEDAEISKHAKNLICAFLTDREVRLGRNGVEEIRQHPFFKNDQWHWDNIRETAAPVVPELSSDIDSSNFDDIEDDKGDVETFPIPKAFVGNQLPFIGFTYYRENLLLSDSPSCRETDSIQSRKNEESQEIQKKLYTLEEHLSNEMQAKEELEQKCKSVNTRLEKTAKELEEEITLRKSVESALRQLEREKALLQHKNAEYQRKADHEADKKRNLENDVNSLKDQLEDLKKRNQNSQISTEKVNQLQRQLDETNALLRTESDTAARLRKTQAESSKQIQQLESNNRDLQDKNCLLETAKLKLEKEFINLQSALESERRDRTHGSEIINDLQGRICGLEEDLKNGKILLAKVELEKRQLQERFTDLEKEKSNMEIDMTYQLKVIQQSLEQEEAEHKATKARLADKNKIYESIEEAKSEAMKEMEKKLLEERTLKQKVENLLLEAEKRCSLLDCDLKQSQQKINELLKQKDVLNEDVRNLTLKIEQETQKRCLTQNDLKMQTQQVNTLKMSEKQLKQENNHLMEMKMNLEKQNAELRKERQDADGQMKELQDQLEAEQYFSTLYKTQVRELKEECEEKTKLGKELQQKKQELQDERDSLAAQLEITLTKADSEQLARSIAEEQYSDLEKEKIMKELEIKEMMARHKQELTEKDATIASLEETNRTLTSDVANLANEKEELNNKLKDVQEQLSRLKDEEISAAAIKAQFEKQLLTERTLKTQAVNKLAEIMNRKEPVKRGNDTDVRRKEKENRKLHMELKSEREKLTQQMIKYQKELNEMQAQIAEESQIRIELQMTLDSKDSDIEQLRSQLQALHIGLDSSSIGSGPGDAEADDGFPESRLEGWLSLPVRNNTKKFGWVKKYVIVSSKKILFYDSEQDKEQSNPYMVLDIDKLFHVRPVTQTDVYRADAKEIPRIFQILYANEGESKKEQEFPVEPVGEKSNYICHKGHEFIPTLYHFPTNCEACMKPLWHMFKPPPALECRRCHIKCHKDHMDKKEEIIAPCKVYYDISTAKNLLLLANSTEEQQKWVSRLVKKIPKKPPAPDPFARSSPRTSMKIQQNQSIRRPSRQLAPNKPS
SMILES,IC50 (ROCK2) [nM],IC50 (ROCK1) [nM]
"COc1cc(C(=O)NC(C)c2cccc(CN3CCN(C)CC3)c2)ccc1-c1cn[nH]c1 (racemic) [Example 81, (+/−)-3-methoxy-N-(1-(3-((4-methylpiperazin-1-yl)methyl)phenyl)ethyl)-4-(1H-pyrazol-4-yl)benzamide]",28.3,156
"CC(NC(=O)c1ccc(-c2cn[nH]c2)c(C(F)F)c1)c1ccccc1F (racemic) [Example 299, 3-(Difluoromethyl)-N-(1-(2-fluorophenyl)ethyl)-4-(1H-pyrazol-4-yl)benzamide]",53.3,110
"CC(NC(=O)c1ccc(-c2cn[nH]c2)c(C(F)F)c1)c1ccccc1F (single isomer, unassigned) [Example 300, 3-(Difluoromethyl)-N-(1-(2-fluorophenyl)ethyl)-4-(1H-pyrazol-4-yl)benzamide]",77.1,108
"CC(NC(=O)c1ccc(-c2cn[nH]c2)c(C(F)F)c1)c1ccccc1F (single isomer, unassigned) [Example 301, 3-(Difluoromethyl)-N-(1-(2-fluorophenyl)ethyl)-4-(1H-pyrazol-4-yl)benzamide]",361,582
"COC(=O)CC(NC(=O)c1ccc(-c2cn[nH]c2)c(OC)c1)c1ccccc1 (stereo in doubt) [Example 92, methyl (3R)-3-{[3-methoxy-4-(1H-pyrazol-4-yl)phenyl] formamido}-3-phenyl-propanoate]",21.4,53.7
"COc1cc(C(=O)NC(C)c2ccccc2OC)ccc1-c1cn[nH]c1 (stereo in doubt) [Example 173, 3-methoxy-N-[(1R)-1-(2-methoxyphenyl)ethyl]-4-(1H-pyrazol-4-yl)benzamide]",27.2,72.4
"COc1cc(C(=O)NCc2csc(-c3ccccc3)n2)ccc1-c1cn[nH]c1 [Example 9, 3-methoxy-N-((2-phenylthiazol-4-yl)methyl)-4-(1H-pyrazol-4-yl)benzamide]",61.9,155
"COc1cc(C(=O)NC(CN2CCOCC2)c2ccccc2)ccc1-c1cn[nH]c1 (stereo not shown) [Example 10, 3-methoxy-N-(2-morpholino-1-phenylethyl)-4-(1H-pyrazol-4-yl)benzamide]",44.5,107
"COc1cc(C(=O)NC(CNC(=O)OC(C)(C)C)c2ccccc2)ccc1-c1cn[nH]c1 (stereo not shown) [Example 11, tert-butyl (2-(3-methoxy-4-(1H-pyrazol-4-yl)benzamido)-2-phenylethyl) carbamate]",,108
"COc1cc(C(=O)NC(CN2CCN(C)CC2)c2ccccc2)ccc1-c1cn[nH]c1 (stereo not shown) [Example 13, 3-methoxy-N-(2-(4-methylpiperazin-1-yl)-1-phenylethyl)-4-(1H-pyrazol-4-yl)benzamide]",77.1,147
"COc1cc(C(=O)NC(CN2CCCC2)c2ccccc2)ccc1-c1cn[nH]c1 (stereo not shown) [Example 14, 3-methoxy-N-(1-phenyl-2-(pyrrolidin-1-yl)ethyl)-4-(1H-pyrazol-4-yl)benzamide]",86.4,243
"COc1cc(C(=O)NCc2ccccn2)ccc1-c1cn[nH]c1 [Example 15, 3-methoxy-4-(1H-pyrazol-4-yl)-N-(pyridin-2-ylmethyl) benzamide]",60.4,184
"COc1cc(C(=O)NCc2nc3ccccc3s2)ccc1-c1cn[nH]c1 [Example 16, N-(benzo[d]thiazol-2-ylmethyl)-3-methoxy-4-(1H-pyrazol-4-yl)benzamide]",438,556
"COc1cc(C(=O)NCc2cccc(-c3ccccc3)c2)ccc1-c1cn[nH]c1 [Example 18, N-([1,1′-biphenyl]-3-ylmethyl)-3-methoxy-4-(1H-pyrazol-4-yl)benzamide]",129,334
"COc1cc(C(=O)NCc2cccnc2)ccc1-c1cn[nH]c1 [Example 19, 3-methoxy-4-(1H-pyrazol-4-yl)-N-(pyridin-3-ylmethyl) benzamide]",23.8,104
"COc1cc(C(=O)NCc2ccccc2OC(F)(F)F)ccc1-c1cn[nH]c1 [Example 22, 3-methoxy-4-(1H-pyrazol-4-yl)-N-(2-(trifluoro-methoxy)benzyl) benzamide]",60.2,85.8
"COc1cc(C(=O)NCc2cccc(OC(F)(F)F)c2)ccc1-c1cn[nH]c1 [Example 28, 3-methoxy-4-(1H-pyrazol-4-yl)-N-(3-(trifluoro-methoxy)benzyl) benzamide]",40.9,1710
"COc1cc(C(=O)NC(C)(C)c2ccccc2)ccc1-c1cn[nH]c1 [Example 30, 3-methoxy-N-(2-phenylpropan-2-yl)-4-(1H-pyrazol-4-yl)benzamide]",129,214
"COc1cc(C(=O)NCc2ccc(Cl)cc2S(=O)(=O)CC(C)C)ccc1-c1cn[nH]c1 [Example 37, N-(4-chloro-2-(isobutyl-sulfonyl)benzyl)-3-methoxy-4-(1H-pyrazol-4-yl)benzamide]",1410,2440
"COc1cc(C(=O)NC(C)Cc2ccc(F)cc2)ccc1-c1cn[nH]c1 (stereo not shown) [Example 111, N-[1-(4-fluorophenyl)propan-2-yl]-3-methoxy-4-(1H-pyrazol-4-yl)benzamide]",,35.8
"C[C@@H](NC(=O)c1cc(F)c(-c2cn[nH]c2)cc1OCCN(C)C)c1ccccc1 [Example 310, 2-[2-(dimethylamino)ethoxy]-5-fluoro-N-[(1R)-1-phenylethyl]-4-(1H-pyrazol-4-yl)benzamide]",675,

# Second part, the compound after the results:
IC50 (ROCK2) [nM],IC50 (ROCK1) [nM],SMILES
8.99,17.7,"COc1cc(C(=O)NC(C)c2ccccc2Cl)ccc1-c1cn[nH]c1 (racemic) [Example 4, (+/−)-N-(1-(2-chlorophenyl)ethyl)-3-methoxy-4-(1H-pyrazol-4-yl) benzamide]"
8.52,30.1,"COc1cc(C(=O)N[C@H]2C[C@@H]2c2ccccc2)ccc1-c1cn[nH]c1 (racemic) [Example 68, (+/−)-3-methoxy-N-(trans-2-phenyl-cyclopropyl)-4-(1H-pyrazol-4-yl)benzamide]"
2.32,6.68,"COc1cc(C(=O)NC(C)c2cccc3ccccc23)ccc1-c1cn[nH]c1 (stereo in doubt) [Example 172, 3-methoxy-N-[(1R)-1-(naphthalen-1-yl)ethyl]-4-(1H-pyrazol-4-yl)benzamide]"
4.73,13.9,"COc1cc(C(=O)NC2(c3ccccc3Cl)CC2)ccc1-c1cn[nH]c1 [Example 2, N-(1-(2-chlorophenyl)cyclopropyl)-3-methoxy-4-(1H-pyrazol-4-yl)benzamide]"
0.85,,"COc1cc(C(=O)NCc2cccc(O)c2)ccc1-c1cn[nH]c1 [Example 6, N-(3-hydroxybenzyl)-3-methoxy-4-(1H-pyrazol-4-yl)benzamide]"
0.85,,"COC(=O)c1cccc(CNC(=O)c2ccc(-c3cn[nH]c3)c(OC)c2)c1 [Example 8, methyl 3-((3-methoxy-4-(1H-pyrazol-4-yl)benzamido)methyl)benzoate]"
4.01,8.42,"COc1cc(C(=O)NCc2cccc(F)c2)ccc1-c1cn[nH]c1 [Example 17, N-(3-fluorobenzyl)-3-methoxy-4-(1H-pyrazol-4-yl)benzamide]"
2.24,10.5,"COc1cc(C(=O)NC(C)c2ccccc2)ccc1-c1cn[nH]c1 (stereo not shown) [Example 20, 3-methoxy-N-(1-phenylethyl)-4-(1H-pyrazol-4-yl)benzamide]"
2.13,7.36,"COc1cc(C(=O)NCc2ccccc2C)ccc1-c1cn[nH]c1 [Example 23, 3-methoxy-N-(2-methylbenzyl)-4-(1H-pyrazol-4-yl)benzamide]"
15.6,37.4,"COc1cc(C(=O)NCCc2ccc(F)cc2)ccc1-c1cn[nH]c1 [Example 24, N-(4-fluorophenethyl)-3-methoxy-4-(1H-pyrazol-4-yl)benzamide]"
2.65,7.9,"COc1cc(C(=O)NCc2ccccc2F)ccc1-c1cn[nH]c1 [Example 25, N-(2-fluorobenzyl)-3-methoxy-4-(1H-pyrazol-4-yl)benzamide]"
20.9,20.4,"COc1cc(C(=O)NCc2ccccc2C(F)(F)F)ccc1-c1cn[nH]c1 [Example 26, 3-methoxy-4-(1H-pyrazol-4-yl)-N-(2-(trifluoromethyl)benzyl)benzamide]"
2.6,12.8,"COc1cc(C(=O)NCc2ccccc2)ccc1-c1cn[nH]c1 [Example 27, N-benzyl-3-methoxy-4-(1H-pyrazol-4-yl) benzamide]"
2.53,5.77,"COc1cc(C(=O)NCc2cccc(Cl)c2Cl)ccc1-c1cn[nH]c1 [Example 29, N-(2,3-dichlorobenzyl)-3-methoxy-4-(1H-pyrazol-4-yl)benzamide]"
5.62,9.2,"COc1cc(C(=O)NCc2ccccc2O)ccc1-c1cn[nH]c1 [Example 31, N-(2-hydroxybenzyl)-3-methoxy-4-(1H-pyrazol-4-yl)benzamide]"
11.5,43.3,"COc1cc(C(=O)NCc2cccc(C(F)(F)F)c2)ccc1-c1cn[nH]c1 [Example 32, 3-methoxy-4-(1H-pyrazol-4-yl)-N-(3-(trifluoro-methyl)benzyl) benzamide]"
6.6,16.5,"COc1cc(C(=O)NCCc2ccccc2Cl)ccc1-c1cn[nH]c1 [Example 35, N-(2-chloro-phenethyl)-3-methoxy-4-(1H-pyrazol-4-yl)benzamide]"
10.5,28.1,"COc1cc(C(=O)NCCc2ccccc2)ccc1-c1cn[nH]c1 [Example 36, 3-methoxy-N-phenethyl-4-(1H-pyrazol-4-yl)benzamide]"
14.2,34.8,"COc1cc(C(=O)NCc2ccc3c(c2)OCO3)ccc1-c1cn[nH]c1 [Example 38, N-(benzo[d] [1,3]dioxol-5-ylmethyl)-3-methoxy-4-(1H-pyrazol-4-yl)benzamide]"
0.85,,"CNC(=O)c1cccc(CNC(=O)c2ccc(-c3cn[nH]c3)c(OC)c2)c1 [Example 65, 3-Methoxy-N-(3-(methylcarbamoyl)benzyl)-4-(1H-pyrazol-4-yl)benzamide]"
